{
  "source": "paper PMC137588",
  "about": "(BMC Neuroscience, 2002)",
  "key": {"mouse δ opioid receptor [1]": {"molecular_target": "T1, mouse δ opioid receptor (Mus musculus, UniProt P32300)", "T1 sequence (P32300 whole entry)": "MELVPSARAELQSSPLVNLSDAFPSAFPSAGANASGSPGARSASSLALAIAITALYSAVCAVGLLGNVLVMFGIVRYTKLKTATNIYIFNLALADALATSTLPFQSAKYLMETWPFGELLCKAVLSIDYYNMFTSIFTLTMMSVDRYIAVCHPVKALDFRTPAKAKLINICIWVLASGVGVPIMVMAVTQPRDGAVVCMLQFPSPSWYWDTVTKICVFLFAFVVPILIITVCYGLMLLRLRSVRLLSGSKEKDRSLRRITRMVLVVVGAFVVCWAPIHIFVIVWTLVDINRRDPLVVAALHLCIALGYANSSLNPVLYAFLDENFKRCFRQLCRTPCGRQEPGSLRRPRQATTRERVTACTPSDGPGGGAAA", "assay": "cell-based", "format": "cell-based", "settings": "for Emax: HEK293, read-out: Max Inhibition %"}, "mouse δ opioid receptor [2]": {"molecular_target": "T1, mouse δ opioid receptor"}, "mouse δ opioid receptor [3]": {"molecular_target": "T1, mouse δ opioid receptor", "format": "binding", "settings": "read-out: AFFINITY Ki"}, "μ opioid receptors [4]": {"tested_on": "μ opioid receptors", "settings": "ref Gharagozlou et al. unpublished results; cited from earlier work"}, "μ opioid receptors [5]": {"tested_on": "μ opioid receptors", "settings": "ref Gharagozlou et al. unpublished results; cited from earlier work", "remark": "listed apart in the source"}},
  "note": "Where two headings read alike, the source gives them in different places.",
  "data": [
    {"smiles": "Oc1ccc2c(c1)[C@@]13CCCC[C@@]1(O)[C@@H](C2)N(CC1CCC1)CC3", "note": "[Butorphanol]", "values": [
      {"measurement": "Emax", "setting": "mouse δ opioid receptor [1]", "result": "64 ± 4", "unit": "%"},
      {"measurement": "IC50", "setting": "mouse δ opioid receptor [1]; IC50 ± SEM", "result": "61 ± 12", "unit": "nM"}
    ]},
    {"smiles": "C[C@H]1[C@H]2Cc3ccc(O)cc3[C@]1(C)CCN2CC1CC1", "note": "[Cyclazocine]", "values": [
      {"measurement": "Emax", "setting": "mouse δ opioid receptor [1]", "result": "53 ± 2", "unit": "%"},
      {"measurement": "IC50", "setting": "mouse δ opioid receptor [1]; IC50 ± SEM", "result": "6 ± 3", "unit": "nM"}
    ]},
    {"smiles": "C[C@@]12CCCCC[C@@H](Cc3ccc(O)cc31)[C@@H]2N", "note": "[Dezocine]", "values": [
      {"measurement": "Emax", "setting": "mouse δ opioid receptor [1]", "result": 39, "unit": "%"},
      {"measurement": "IC50", "setting": "mouse δ opioid receptor [1]; IC50 ± SEM", "result": "477 ± 152", "unit": "nM"}
    ]},
    {"smiles": "C[C@H]1[C@H]2Cc3ccc(O)cc3[C@]1(C)CCN2C", "note": "[Metazocine]", "values": [
      {"measurement": "Agonist efficacy classification at δ opioid receptors", "setting": "mouse δ opioid receptor [1]", "result": "super agonists"},
      {"measurement": "Emax", "setting": "mouse δ opioid receptor [1]", "result": "77 ± 4", "unit": "%"},
      {"measurement": "IC50", "setting": "mouse δ opioid receptor [1]; IC50 ± SEM", "result": "159 ± 70", "unit": "nM"}
    ]},
    {"smiles": "C=CCN1CC[C@]23c4c5ccc(O)c4O[C@H]2[C@@H](O)C=C[C@H]3[C@H]1C5", "note": "[Nalorphine]", "values": [
      {"measurement": "Classification as antagonist at δ opioid receptor", "setting": "mouse δ opioid receptor [2]", "result": "Antagonist"}
    ]},
    {"smiles": "C=CCN1CCC2(C)c3cc(O)ccc3CC1C2C", "note": "(centres unmarked) [SKF 10047]", "values": [
      {"measurement": "Emax", "setting": "mouse δ opioid receptor [1]", "result": "68 ± 9", "unit": "%"},
      {"measurement": "IC50", "setting": "mouse δ opioid receptor [1]; IC50 ± SEM", "result": "184 ± 121", "unit": "nM"}
    ]},
    {"smiles": "CN1CC[C@]2(C)c3cc(O)ccc3C[C@H]1C2(C)CCC(=O)CCC1CCCC1", "note": "(some centres unmarked) [WIN 44,441]", "values": [
      {"measurement": "Max Inhibition %", "setting": "mouse δ opioid receptor [1]", "result": "54 ± 6", "unit": "%"},
      {"measurement": "IC50", "setting": "mouse δ opioid receptor [1]; read-out: IC50 ± SEM", "result": "40 ± 25", "unit": "nM"},
      {"measurement": "Ki", "setting": "mouse δ opioid receptor [3]", "result": "2.6 ± 0.9", "unit": "nM"},
      {"measurement": "affinity at μ opioid receptors", "setting": "μ opioid receptors [4]", "result": "less than 1 nM"},
      {"measurement": "activation profile at μ opioid receptors", "setting": "μ opioid receptors [5]", "result": "antagonist"}
    ]},
    {"smiles": "C=C1C[C@H](C)[C@H]2[C@H]3Cc4ccc(O)cc4[C@@]2(CCN3CC2CCC2)C1", "note": "[Xorphanol]", "values": [
      {"measurement": "Agonist efficacy classification at δ opioid receptors", "setting": "mouse δ opioid receptor [1]", "result": "super agonists"},
      {"measurement": "Max Inhibition %", "setting": "mouse δ opioid receptor [1]", "result": "76 ± 4^$$ ## %"},
      {"measurement": "IC50", "setting": "mouse δ opioid receptor [1]; read-out: IC50 ± SEM", "result": "8 ± 2", "unit": "nM"},
      {"measurement": "Ki", "setting": "mouse δ opioid receptor [3]", "result": "1 ± 0.2", "unit": "nM"},
      {"measurement": "affinity at μ opioid receptors", "setting": "μ opioid receptors [4]", "result": "less than 1 nM"},
      {"measurement": "activation profile at μ opioid receptors", "setting": "μ opioid receptors [5]", "result": "very weak agonist"}
    ]}
  ]
}
